Experimental data reported in ChEMBL document CHEMBL1149347, “Fatty acid synthase inhibitory activity of acylphloroglucinols isolated from Dryopteris crassirhizoma” (Bioorg Med Chem Lett, 2006).

Key:
[1] = biological target: T1, Fatty acid synthase (Homo sapiens, UniProt P49327); test: Inhibition of FAS
Target sequence in this assay (P49327 whole entry): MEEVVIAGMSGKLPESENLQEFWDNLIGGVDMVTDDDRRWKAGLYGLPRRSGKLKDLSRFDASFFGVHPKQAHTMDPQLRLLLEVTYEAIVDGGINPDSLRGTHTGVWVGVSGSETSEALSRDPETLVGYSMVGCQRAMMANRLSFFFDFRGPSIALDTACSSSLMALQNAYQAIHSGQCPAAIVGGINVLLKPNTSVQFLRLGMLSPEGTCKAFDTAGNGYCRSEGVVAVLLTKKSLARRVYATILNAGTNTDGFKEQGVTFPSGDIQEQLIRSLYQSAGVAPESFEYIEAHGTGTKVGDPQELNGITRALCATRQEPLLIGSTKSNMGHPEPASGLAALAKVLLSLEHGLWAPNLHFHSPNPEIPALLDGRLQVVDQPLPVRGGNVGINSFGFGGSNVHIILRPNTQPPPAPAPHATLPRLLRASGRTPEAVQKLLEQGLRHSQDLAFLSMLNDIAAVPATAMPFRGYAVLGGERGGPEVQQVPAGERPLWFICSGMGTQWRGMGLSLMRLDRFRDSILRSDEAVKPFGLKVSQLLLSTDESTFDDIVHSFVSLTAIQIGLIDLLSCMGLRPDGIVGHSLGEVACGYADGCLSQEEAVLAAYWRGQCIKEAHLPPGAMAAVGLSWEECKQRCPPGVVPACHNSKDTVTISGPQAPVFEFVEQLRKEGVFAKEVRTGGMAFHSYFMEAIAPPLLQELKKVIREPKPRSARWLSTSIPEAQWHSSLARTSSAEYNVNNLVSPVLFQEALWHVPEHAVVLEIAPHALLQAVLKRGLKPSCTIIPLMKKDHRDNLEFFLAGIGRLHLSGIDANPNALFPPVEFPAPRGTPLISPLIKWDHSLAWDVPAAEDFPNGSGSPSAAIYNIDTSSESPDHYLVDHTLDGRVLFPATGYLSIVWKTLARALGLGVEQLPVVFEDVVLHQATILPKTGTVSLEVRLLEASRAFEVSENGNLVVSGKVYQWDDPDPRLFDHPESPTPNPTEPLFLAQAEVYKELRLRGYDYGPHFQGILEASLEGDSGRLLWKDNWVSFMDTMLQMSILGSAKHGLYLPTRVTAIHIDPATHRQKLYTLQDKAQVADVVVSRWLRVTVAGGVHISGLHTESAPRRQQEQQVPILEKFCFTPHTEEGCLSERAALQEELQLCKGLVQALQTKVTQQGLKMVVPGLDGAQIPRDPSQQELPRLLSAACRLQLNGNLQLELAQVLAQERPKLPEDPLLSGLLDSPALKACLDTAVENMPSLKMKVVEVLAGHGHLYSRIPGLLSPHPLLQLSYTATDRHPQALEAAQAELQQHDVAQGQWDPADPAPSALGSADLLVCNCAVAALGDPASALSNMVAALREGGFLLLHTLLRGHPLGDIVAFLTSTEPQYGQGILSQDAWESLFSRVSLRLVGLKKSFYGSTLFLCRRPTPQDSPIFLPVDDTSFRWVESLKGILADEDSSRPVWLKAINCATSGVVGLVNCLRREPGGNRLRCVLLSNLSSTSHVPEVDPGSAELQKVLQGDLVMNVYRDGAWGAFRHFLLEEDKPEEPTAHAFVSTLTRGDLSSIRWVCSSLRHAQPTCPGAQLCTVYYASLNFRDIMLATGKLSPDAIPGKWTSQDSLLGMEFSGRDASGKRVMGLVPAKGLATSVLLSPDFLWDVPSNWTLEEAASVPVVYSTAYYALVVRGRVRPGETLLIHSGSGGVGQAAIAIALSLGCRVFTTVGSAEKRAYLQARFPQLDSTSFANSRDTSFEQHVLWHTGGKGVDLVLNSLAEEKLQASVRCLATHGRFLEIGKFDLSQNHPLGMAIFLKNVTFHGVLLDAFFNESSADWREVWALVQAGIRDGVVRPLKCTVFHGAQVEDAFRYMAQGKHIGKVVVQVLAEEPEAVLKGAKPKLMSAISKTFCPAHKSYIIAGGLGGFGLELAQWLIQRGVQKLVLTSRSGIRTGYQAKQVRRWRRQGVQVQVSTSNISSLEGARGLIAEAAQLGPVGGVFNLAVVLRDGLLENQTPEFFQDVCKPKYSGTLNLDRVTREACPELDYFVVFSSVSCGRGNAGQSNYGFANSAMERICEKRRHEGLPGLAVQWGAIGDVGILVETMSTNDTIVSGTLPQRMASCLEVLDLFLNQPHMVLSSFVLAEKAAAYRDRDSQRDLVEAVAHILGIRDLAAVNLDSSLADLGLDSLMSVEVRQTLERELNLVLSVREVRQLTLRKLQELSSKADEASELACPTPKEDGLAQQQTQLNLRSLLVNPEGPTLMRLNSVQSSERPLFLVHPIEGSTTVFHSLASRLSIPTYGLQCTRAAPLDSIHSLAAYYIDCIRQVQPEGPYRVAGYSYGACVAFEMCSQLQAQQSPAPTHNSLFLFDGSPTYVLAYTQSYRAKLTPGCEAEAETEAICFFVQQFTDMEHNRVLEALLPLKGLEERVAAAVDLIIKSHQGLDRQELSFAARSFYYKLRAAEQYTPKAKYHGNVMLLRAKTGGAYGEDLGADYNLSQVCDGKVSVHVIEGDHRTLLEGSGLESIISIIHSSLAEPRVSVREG

[2] = biological target: T1, Fatty acid synthase; test: Inhibition of FAS at 100 uM
Target sequence in this assay (P49327 whole entry, looked up): as the sequence (P49327 whole entry) above

Row | IC50 [1] | Structure (SMILES) | inhibition [2]
1 | 31 µM | CCCC(=O)c1c(O)c(CC2=C(O)C(C)(C)C(O)=C(C(C)=O)C2=O)c(O)c(CC2=C(O)C(C)(C)C(O)=C(C(=O)CC)C2=O)c1O | –
2 | 25.4 µM | CCCC(=O)c1c(O)c(C)c(O)c(Cc2c(O)c(C)c(O)c(C(=O)CCC)c2O)c1O | –
3 | 28.7 µM | CCCC(=O)C1=C(O)C(C)C(O)=C(CC2=C(O)C(C)(C)C(O)=C(C(C)=O)C2=O)C1=O (stereo unspecified) | –
4 | 29.7 µM | CCCC(=O)C1=C(O)CC(O)=C(CC2=C(O)C(C)(C)C(O)=C(C(C)=O)C2=O)C1=O | –
5 | 49.1 µM | CCCC(=O)c1c(O)cc(OC)c(C)c1O | –
6 | 32.6 µM | CCCC(=O)C1=C(OC)C(C)C(O)=C(CC2=C(O)C(C)(C)C(O)=C(C(=O)CCC)C2=O)C1=O (stereo unspecified) | –
7 | 56.1 µM | CCCC(=O)C1=C(O)C(C)(C)C(O)=C(CC2=C(O)C(C)(C)C(O)=C(C(=O)CC)C2=O)C1=O | –
8 | 23.1 µM | CCCC(=O)C1=C(O)C(C)C(O)=C(CC2=C(O)C(C)(C)C(O)=C(C(=O)CC)C2=O)C1=O (stereo unspecified) | –

Further lines, the molecule ahead of its results:

Row | Structure (SMILES) | IC50 [1] | inhibition [2]
9 | O=c1c(O)c(-c2ccccc2)oc2ccccc12 [FLAVONOL] | > 100 µM | 6.5%
10 | C/C=C/C/C=C/CCC(=O)[C@H]1O[C@H]1C(N)=O [CERULENIN] | 13 µM | –
11 | CCC(=O)C1=C(O)C(C)(C)C(O)=C(CC2=C(O)C(C)(C)C(O)=C(C(C)=O)C2=O)C1=O | 71.7 µM | –
12 | Oc1cc(O)c2c(c1)O[C@H](c1ccc(O)c(O)c1)[C@H](O)C2 [(-)-EPICATECHIN] | > 100 µM | 10.2%
13 | CCC(=O)C1=C(O)C(C)(C)C(O)=C(CC2=C(O)C(C)(C)C(O)=C(C(=O)CC)C2=O)C1=O | 60.2 µM | –
14 | O=c1cc(-c2ccc(O)c(O)c2)oc2cc(O)cc(O)c12 [LUTEOLIN] | 62.5 µM | –
